According to patent US20100160369A1, “S1P1 Agonists and Methods of Making And Using” (EXELIXIS, INC., priority 2008, published 2010):
pEC50: −log10 of the molar value.

Legend:
Type in all cases: cell-based
[1] = target: T1, S1P1 (Homo sapiens, UniProt P21453); test: Tango β-arrestin Recruitment Assay in U2OS cells (Assay 2b); parameters: linker with TEV protease (N1a) cleavage site (C); details: Tango β-arrestin Recruitment Assay, read-out: Assay 2b EC50
Method in brief: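 Agonist EC50 from percent activity relative to 1 μM S1P efficacy control, using background-subtracted 460/530 nm emission ratios. Compounds (max 1 μM, ten 3-fold dilutions) incubated overnight at 37 °C with serum-starved S1P1 U2OS reporter cells, followed by 2 h β-lactamase reagent at room temperature.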
Target sequence in this assay (P21453 whole entry): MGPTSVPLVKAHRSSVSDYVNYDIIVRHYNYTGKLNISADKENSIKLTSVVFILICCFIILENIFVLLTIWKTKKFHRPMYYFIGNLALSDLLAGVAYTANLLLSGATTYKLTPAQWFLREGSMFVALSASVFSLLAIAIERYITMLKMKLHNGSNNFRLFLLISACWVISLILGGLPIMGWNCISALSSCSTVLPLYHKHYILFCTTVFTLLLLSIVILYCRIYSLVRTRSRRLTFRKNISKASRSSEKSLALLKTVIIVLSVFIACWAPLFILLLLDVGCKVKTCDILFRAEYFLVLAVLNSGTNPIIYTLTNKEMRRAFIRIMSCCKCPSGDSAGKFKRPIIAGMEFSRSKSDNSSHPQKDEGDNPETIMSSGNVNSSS
Target sequence in this assay (P32121 whole entry partner): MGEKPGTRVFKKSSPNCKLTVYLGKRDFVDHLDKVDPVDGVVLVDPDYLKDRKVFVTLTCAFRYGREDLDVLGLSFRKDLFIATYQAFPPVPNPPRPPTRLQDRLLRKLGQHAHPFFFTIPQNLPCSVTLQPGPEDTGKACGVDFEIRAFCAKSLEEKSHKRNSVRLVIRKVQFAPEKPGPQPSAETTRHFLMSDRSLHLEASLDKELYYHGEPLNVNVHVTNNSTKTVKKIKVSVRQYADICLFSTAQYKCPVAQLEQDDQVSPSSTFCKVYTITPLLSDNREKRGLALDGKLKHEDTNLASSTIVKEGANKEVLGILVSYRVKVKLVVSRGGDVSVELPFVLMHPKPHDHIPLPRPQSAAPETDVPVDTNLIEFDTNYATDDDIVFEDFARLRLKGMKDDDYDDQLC

[2] = target: T1, S1P1; test: CNG cAMP Assay (Assay 1); parameters: host or cells: HEK293 cells expressing the CNG channel; details: read-out: Assay 1 EC50
Method in brief: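 cAMP-gated CNG membrane-potential read-out (350/590 nm, T90/T0 ratio) in S1P1/CNG HEK293 cells after 90 min with compound plus NECA 500 nM, S1P 10 nM (EC95), Ro 20-1724 25 μM. Ten 3-fold points from 10 μM, 1.8% DMSO; percent activity vs NECA-only control gives EC50.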
Target sequence in this assay (P21453 whole entry): as the sequence (P21453 whole entry) above

[3] = target: T1, S1P1; test: Tango β-arrestin Recruitment Assay in HEK293 cells (Assay 2a); parameters: linker with TEV protease (N1a) cleavage site (C); host or cells: HEK293, transiently transfected; details: Tango β-arrestin Recruitment Assay, read-out: Assay 2a EC50
Method in brief: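 Agonist-driven β-arrestin2–TEV recruitment releases tTA to drive luciferase in transiently transfected HEK293 cells. Ten 3-fold dilutions from 10 μM top (1% DMSO), 16–18 h at 37 °C; EC50 fitted to percent activity versus DMSO background and 5 μM S1P efficacy control.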
Target sequence in this assay (P21453 whole entry): as above
Target sequence in this assay (P32121 whole entry partner): as the sequence (P32121 whole entry partner) above

Measured: pEC50

O=C(O)CCc1cc(Cl)c(-c2noc(-c3cn4cc(C(F)(F)F)cc(Br)c4n3)n2)cc1F [Entry 49]
≥ 7.00: all assays above

O=C(O)CCc1cc(Cl)c(-c2nnc(-c3cn4cc(C(F)(F)F)cc(Cl)c4n3)s2)cc1F [Example 176, 3-(5-chloro-4-{5-[8-chloro-6-(trifluoromethyl)imidazo[1,2-a]pyridin-2-yl]-1,3,4-thiadiazol-2-yl}-2-fluorophenyl)propanoic acid]
≥ 7.00: all assays above

O=C(O)CCc1cc(Cl)c(-c2nnc(-c3cn4cc(C(F)(F)F)cc(Br)c4n3)s2)cc1F [Example 177, 3-(4-{5-[8-bromo-6-(trifluoromethyl)imidazo[1,2-a]pyridin-2-yl]-1,3,4-thiadiazol-2-yl}-5-chloro-2-fluorophenyl)propanoic acid]
≥ 7.00: all assays above

CC(C)Oc1cc(Cl)c2nc(-c3nc(-c4cc(F)c(CCC(=O)O)cc4Cl)no3)cn2c1 [Example 301, 3-[5-chloro-4-(5-{8-chloro-6-[(1-methylethyl)oxy]imidazo[1,2-a]pyridin-2-yl}-1,2,4-oxadiazol-3-yl)-2-fluorophenyl]propanoic acid]
≥ 7.00: all assays above

O=C(O)CCc1cc(Cl)c(-c2noc(-c3cn4cc(I)cc(Cl)c4n3)n2)cc1F [Example 302, 3-{5-chloro-4-[5-(8-chloro-6-iodoimidazo[1,2-a]pyridin-2-yl)-1,2,4-oxadiazol-3-yl]-2-fluorophenyl}propanoic acid]
≥ 7.00: all assays above

O=C(O)CCc1cc(Cl)c(-c2noc(-c3cn4cc(C(F)(F)F)cc(Cl)c4n3)n2)cc1Cl [Example 242, 3-(2,5-dichloro-4-{5-[8-chloro-6-(trifluoromethyl)imidazo[1,2-a]pyridin-2-yl]-1,2,4-oxadiazol-3-yl}phenyl)propanoic acid]
≥ 7.00: all assays above

C[C@H](CO)Oc1cc(Cl)c(-c2noc(-c3cn4cc(C(F)(F)F)cc(Cl)c4n3)n2)cc1F [Example 93, (2R)-2-[(5-chloro-4-{5-[8-chloro-6-(trifluoromethyl)imidazo[1,2-a]pyridin-2-yl]-1,2,4-oxadiazol-3-yl}-2-fluorophenyl)oxy]propan-1-ol]
≥ 7.00: all assays above

O=C(O)CCc1cc(Cl)c(-c2nc(-c3cn4cc(C(F)(F)F)cc(Cl)c4n3)no2)cc1F [Example 233, 3-(5-chloro-4-{3-[8-chloro-6-(trifluoromethyl)imidazo[1,2-a]pyridin-2-yl]-1,2,4-oxadiazol-5-yl}-2-fluorophenyl)propanoic acid]
≥ 7.00: all assays above

Cc1cc(CCC(=O)O)c(Cl)cc1-c1noc(-c2cn3cc(C(F)(F)F)cc(Cl)c3n2)n1 [Entry 56]
≥ 7.00: all assays above

O=C(O)CCc1cc(Cl)c(-c2noc(-c3cn4cc(C(F)(F)F)cc(Cl)c4n3)n2)cc1F [Entry 24]
≥ 7.00: all assays above

OCCOc1cc(Cl)c(-c2noc(-c3cn4cc(C(F)(F)F)cc(Cl)c4n3)n2)cc1F [Example 263, 2-[(5-chloro-4-{5-[8-chloro-6-(trifluoromethyl)imidazo[1,2-a]pyridin-2-yl]-1,2,4-oxadiazol-3-yl}-2-fluorophenyl)oxy]ethanol]
≥ 7.00: all assays above

OCC(O)COc1cc(Cl)c(-c2noc(-c3cn4cc(C(F)(F)F)cc(Cl)c4n3)n2)cc1Cl (stereo not drawn) [Example 208, 3-[(2,5-dichloro-4-{5-[8-chloro-6-(trifluoromethyl)imidazo[1,2-a]pyridin-2-yl]-1,2,4-oxadiazol-3-yl}phenyl)oxy]propane-1,2-diol]
≥ 7.00: all assays above
